Patent US20240327331A1, “ESTERS OF 7-COOH CBD DERIVATIVES AND THEIR USE AS PREVENTION, PROPHYLAXIS OF PROGRESSION, AND/OR TREATMENT OF NEUROGENERATIVE DISEASES” (Receptor Pharma INC, priority 2021, published 2024)
pIC50: −log10 of the molar value.

Columns and labels:
GPR3 receptor [1] = biological target: T1, GPR3 receptor (Homo sapiens, UniProt P46089); details: cited from earlier work; for mode of action at the GPR3 receptor: Laun and Song 2017, Lunn et al 2006
GPR3 receptor [2] = biological target: T1, GPR3 receptor; experiment: PathHunter β-arrestin2 recruitment assay in CHO-K1 cells expressing GPR3-PK; format: cell-based; set-up: host or cells: CHO-K1 (PathHunter eXpress kit); details: for mode of action at the GPR3 receptor (β-arrestin2 recruitment): 0.1 μM, 1 μM and 10 μM, FIG. 1
Source text: The PathHunter™ eXpress kits containing Chinese hamster ovary (CHO)-K1 cells co-expressing EA-O-arrestin2 human and GPR3-PK were purchased from DiscoverX (Fremont, CA). All cannabinoid ligands were purchased from BDG Synthesis (Wellington, New Zealand).
PathHunter™ eXpress kits were used to measure GPR3-mediated β-arrestin2 recruitment following manufacturer's instructions. In this system, Chinese hamster ovary (CHO)-K1 cell line are stably expressing the GPR3 receptors which were fused to a “ProLink (PK)” fragment of βi-galactosidase to form GPR3-PK. The remaining sequence of β-galactosidase enzyme acceptor (EA) was linked to β-arrestin2 to form EA-β-arrestin2. Recruitment of Si-arrestin2 by receptor activation causes complementation of the two enzyme fragments. Levels of the active enzyme are the direct result of β-arrestin2 recruitment caused by receptor activation and quantified using the PathHunter detection reagent containing β-galactosidase substrates. Cells were plated in DiscoverX cell plating reagent1 in 384-well plates and cultured for 24-48 hours prior to experimentation in a humidified atmosphere at 37° C. and 5% CO2. Cannabinoid ligands were diluted in DiscoverX cell plating reagent1. Cells were then incubated with ligand at 37° C. following manufacturer's recommendations, followed by incubation with detection reagent in the dark for 1 hour at 23° C. Luminescence signal was then detected using a TECAN GENios Pro microplate reader.
Ligand-induced changes in R-arrestin2 recruitment to GPR3 were expressed as percent basal relative luminescence units, which was calculated by dividing luminescence readings in the presence of ligands by basal luminescence readings, times 100. Concentration-response curves were generated by performing nonlinear regression analysis using GraphPad Prism (GraphPad Software, La Jolla, CA). Data were analyzed using one-way analysis of variance (ANOVA) followed by NewmanKeuls post-test. Data points shown are presented as mean±SEM, and were obtained from three independent experiments performed in quadruplicate.
To determine whether CBD and its human metabolites 6-OH-CBD, 7-OH-CBD and 7-COOH-CBD are capable of changing S3-arrestin2 recruitment to GPR3, β-arrestin2 recruitment assays were performed using 0.1 μM and 1 μM and 10 μM concentrations.

[3] = tested on: icv streptozotocin (stz) rat model of Alzheimer Disease; experiment: Novel object recognition test in icv streptozotocin rat model of Alzheimer Disease; format: in vivo, Wistar rats; details: STZ 3 mg/kg icv, daily treatment 8 days, test after 24 h; 1j 25 mg/kg ip, 7-COOH-CBD 20 mg/kg; N=6
Source text: This in vivo model represents a model for the most frequent form of Alzheimer Disease, the late onset or ‘sporadic’ form. The icv injection of stz in the rat brain induces pathological changes that are observed in patients with Alzheimer Disease, like accumulation of beta-amyloid and Tau-protein and the well-known cognitive impairment. This well-known model was first described in the 90-ies by Mayer et al. (1990) and Lannert et al. (1998). The procedure for the creation of the model has recently been described in detail by Moreiro-Silva et al. (2019). In short, a 1-3 mg/kg dose of stz is injected bilateraly by icv injection in Wistar rats, and the animals are allowed to recover for a period of 7 days, after which animals can be evaluated for neurodegenerative changes in behaviour and/or by imaging of the brain.
The novel object recognition data were analyzed using the Student's t-test, with differences being considered significant if p<0.05.
On day 8, the animals were subjected to the novel object recognition (NOR) behavioural test. All objects used for the is test had similar textures, colors, and sizes but distinctive shapes. The rats were placed in a rectangular arena (76×49×57 cm) containing two identical objects (A1+A2) for the habituation and training phase. […] The discrimination index was calculated by: […]

[4] = tested on: CB1 and CB2 receptors as well as the voltage gated Na channel and mono-amine transporters; details: physiological relevant concentrations; cited from earlier work
[5] = tested on: animal models of epilepsy; details: cited from earlier work
[6] = after CBD, in the body; cited from earlier work

T1 sequence (P46089 whole entry): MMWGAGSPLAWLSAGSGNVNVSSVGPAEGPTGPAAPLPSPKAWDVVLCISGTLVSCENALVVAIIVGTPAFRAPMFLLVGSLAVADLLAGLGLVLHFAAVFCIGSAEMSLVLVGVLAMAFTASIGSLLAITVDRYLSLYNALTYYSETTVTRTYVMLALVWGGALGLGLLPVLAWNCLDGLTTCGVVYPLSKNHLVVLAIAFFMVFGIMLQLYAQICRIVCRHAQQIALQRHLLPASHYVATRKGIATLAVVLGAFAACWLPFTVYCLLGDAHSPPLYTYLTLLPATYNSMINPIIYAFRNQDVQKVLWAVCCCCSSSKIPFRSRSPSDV

Row | Compound | mode of action at the GPR3 receptor (GPR3 receptor [1]) | mode of action at the GPR3 receptor (β-arrestin2 recruitment) (GPR3 receptor [2]) | long-term memory index (discrimination index), novel object recognition [3] | anticonvulsant action [5] | further results
1 | C=C(C)[C@@H]1CCC(C)=C[C@H]1c1c(O)cc(CCCCC)cc1O [CBD, Cannabidiol] | inverse agonist | inverse agonist | – | – | pIC50 (GPR3 receptor [1]; inverse agonism): 5.91; inhibition of GPR3 receptor activity (GPR3 receptor [1]; inverse agonist, dose-dependent): 39%
2 | C=C(C)[C@@H]1C[C@H](O)C(C)=C[C@H]1c1c(O)cc(CCCCC)cc1O [Example 6-OH-CBD] | – | weak agonists | – | – | –
3 | C=C(C)[C@@H]1CCC(C(=O)O)=C[C@H]1c1c(O)cc(CCCCC)cc1O [Example 7-COOH-CBD, (3R-trans)-3-(2,6-dihydroxy-4-pentylphenyl)-4-(1-methylethenyl)-1-cyclohexene-1-carboxylic acid] | – | full antagonist | 79.6±3.4 | devoid of any anticonvulsant action | binding or modulation in in vitro binding/target panel [4]: no binding or modulation properties; plasma levels of metabolite relative to parent compound CBD [6]: up to 50 fold; competition with SR144528 at the GPR3 binding site (GPR3 receptor [2]; 10 μM 7-COOH-CBD, ascending concentrations of SR144528): displaces the inverse agonist from the GPR3 binding site
4 | C=C(C)[C@@H]1CCC(CO)=C[C@H]1c1c(O)cc(CCCCC)cc1O [Example 7-OH-CBD, 7-hydroxy-CBD] | – | weak agonists | – | equipotency to CBD | plasma levels of metabolite relative to plasma levels of parent compound CBD [6]: about 50%
5 | COc1ccc(S(=O)(=O)c2cc(OC)ccc2S(=O)(=O)c2ccc([C@H](C)NS(C)(=O)=O)cc2)cc1 [Sch.336, N-[1(S)-[4-[[4-methoxy-2-[(4-methoxyphenyl)sulfonyl]phenyl]-sulfonyl]phenyl]ethyl]methanesulfonamide] | inverse agonist | – | – | – | –
6 | (3R-trans)-3-(2,6-dihydroxy-4-pentylphenyl)-4-(1-methylethenyl)-1-cyclohexene-1-carboxylic acid cyclopropane ester [Example 1j] | – | – | 80.5±3.9 | – | –
